Test results: patent US20090018150A1, “5-Ht2b Receptor Antagonists” (ASTERAND UK LIMITED, priority 2003, published 2009)
Where a name gives a salt, the structure may show the parent alone.

Assays:
[1] = biological target: T1, human cloned 5-HT2B receptors (Homo sapiens, UniProt P41595); assay: Human cloned 5-HT2B receptor binding assay; conditions: [3H]LSD (1 nM) displacement, membranes of CHO-K1 cells expressing cloned 5-HT2B receptor; read-out: 5-HT2B pKi (converted)
T1 construct: expressed in transfected cells; host or cells: CHO-K1
T1 sequence (P41595 whole entry): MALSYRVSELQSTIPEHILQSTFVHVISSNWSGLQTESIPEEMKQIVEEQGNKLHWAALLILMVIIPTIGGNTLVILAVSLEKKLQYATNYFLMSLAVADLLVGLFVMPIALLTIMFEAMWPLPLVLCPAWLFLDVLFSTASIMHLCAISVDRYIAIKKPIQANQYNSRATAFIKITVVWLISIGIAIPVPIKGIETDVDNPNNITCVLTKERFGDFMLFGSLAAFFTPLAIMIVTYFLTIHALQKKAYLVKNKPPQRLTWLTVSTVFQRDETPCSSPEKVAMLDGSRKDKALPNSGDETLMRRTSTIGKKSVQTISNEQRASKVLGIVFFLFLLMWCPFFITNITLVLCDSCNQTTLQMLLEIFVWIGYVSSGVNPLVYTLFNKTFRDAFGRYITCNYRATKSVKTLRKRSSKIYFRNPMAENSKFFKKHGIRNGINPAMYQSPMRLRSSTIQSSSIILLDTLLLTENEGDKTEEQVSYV
Method: The binding affinity of the compounds for human cloned 5-HT2B receptors was determined using the following assay.
CHO-K1 cells expressing cloned 5-HT2B receptor were maintained in Ultra-CHO medium containing 400 μg/ml of G418, 100 U/ml penicillin, 100 μg/ml streptomycin, 2.5 μg/ml fungizone and 1-foetal bovine serum, in 95/5% O2/CO2 at 37° C. The cells were harvested using 0.25% trypsin and were centrifuged at 800 rpm for 8 minutes. The cells were homogenised in 50 mM HEPES buffer containing 1 mM disodium EDTA and 1 mM PMSF at pH 7.4, using a Dounce homogeniser (20 strokes). The homogenate was centrifuged at 2280 rpm (1000 g) and 4° C. for 10 minutes, after which the supernatant was removed by decanting. The pellet was re-homogenised as above, and the resulting supernatant removed and combined with that already obtained. The supernatant solution was then centrifuged at 18300 rpm (40000 g) for 10 minutes at 4° C. using a Sorvall centrifuge. The supernatant was removed, and the pellet was re-suspended in 50 mM buffer at pH 7.4 using a Ultra-turrax T25 Polytron, before centrifugation again at 40000 g as above. This wash procedure was repeated, after which the membrane preparation was stored at a concentration of 1 mg/ml at −80° C. until use.
The membranes were thawed rapidly and diluted in assay buffer containing Tris-HCl (50 mM, pH 7.4), ascorbic acid (0.1°) and calcium chloride (4 mM). The membranes were homogenised to resuspend them, prior to adding 10 or 15 μg of membranes to assay wells containing [^3H]LSD (1 nM), assay buffer (50 mM Tris, 4 mM calcium chloride and 0.1° ascorbic acid) containing pargyline (10 μM), and the test compounds (1×10^−10 to 1×10^−4M). Non specific binding was determined in the presence of 100 μM 5-HT. After 30 minutes incubation at 37° C., the assay mixture was filtered through a combination of GF-C and GF-B filters, pre-soaked in 1% polyethyleneimine, using a Brandel cell harvester, and were washed three times using 50 mM Tris-HCl. Radioactivity retained on the filters was determined by liquid scintillation counting. For each test compound, the concentration that inhibited binding of [^3H]LSD by 50% was determined using curve fitting software (Prism). Kd values (concentration of LSD required to occupy 50% of the receptor binding sites at equilibrium) determined from saturation binding studies were then used to calculate inhibition dissociation constants (Ki) using the following equation: […]
This approach follows that set out in Kenakin, T. P. Pharmacologic analysis of drug-receptor interaction. Raven Press, New York, 2nd Edition.

[2] = biological target: T2, cloned human 5-HT2C receptor (Homo sapiens, UniProt P28335); assay: Human 5-HT2C receptor binding assay; conditions: [3H]mesulergine (1 nM) displacement, CHO-K1 cell membranes; read-out: 5-HT2C pKi (converted)
T2 construct: purchased Euroscreen; host or cells: CHO-K1
T2 sequence (P28335 33-458): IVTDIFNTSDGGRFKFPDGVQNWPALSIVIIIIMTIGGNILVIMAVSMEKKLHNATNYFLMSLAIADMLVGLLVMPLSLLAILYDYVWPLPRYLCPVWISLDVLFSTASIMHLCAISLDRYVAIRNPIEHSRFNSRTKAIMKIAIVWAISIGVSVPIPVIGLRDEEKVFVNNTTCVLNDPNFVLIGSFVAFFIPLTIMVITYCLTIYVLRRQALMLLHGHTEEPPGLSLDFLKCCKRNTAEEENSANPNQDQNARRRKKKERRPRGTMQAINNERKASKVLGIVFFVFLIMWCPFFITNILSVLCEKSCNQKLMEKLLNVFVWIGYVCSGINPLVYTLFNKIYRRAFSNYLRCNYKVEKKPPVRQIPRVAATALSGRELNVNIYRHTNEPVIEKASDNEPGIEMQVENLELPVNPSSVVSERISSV
Method: (§1) The binding affinity of ligands for human 5-HT2A and 5-HT2C receptors was determined using the following assay.
Membrane preparations from CHO-K1 cells expressing the cloned human 5-HT2C receptor were obtained (Euroscreen). The membranes were thawed rapidly and diluted in assay buffer containing Tris-HCl (50 mM, pH 7.7), ascorbic acid (0.1%) and pargyline (10 μM). The membranes were resuspended by homogenisation, prior to adding 6 μg of membranes to assay wells containing [^3H]mesulergine (1 nM), assay buffer (50 mM Tris at pH 7.7 and 0.1% ascorbic acid) containing pargyline (10 μM), and test compounds (1×10^−10 to 1×10^−4M). Non specific binding was determined in the presence of 100 μM mianserin. After 30 minutes incubation at 37° C., the assay mixture was filtered through a combination of GF-C and GF-B filters, pre-soaked in 1% bovine serum albumin, using a Brandel cell harvester, and were washed three times using ice cold Tris-HCl buffer (50 mM). Radioactivity retained on the filters was determined by liquid scintillation counting. For each test compound, the concentration that inhibited binding of [^3H]mesulergine by 50% was determined using curve fitting software (Prism). Kd values (concentration of mesulergine required to occupy 50% of the receptor binding sites at equilibrium) determined from saturation binding studies were then used to calculate inhibition dissociation constants (Ki) using the following equation: […]

[3] = biological target: T3, cloned human 5-HT2A receptor (Homo sapiens, UniProt P28223); assay: Human 5-HT2A receptor binding assay; conditions: [3H]ketanserin (1 nM) displacement, CHO-K1 cell membranes; read-out: 5-HT2A pKi (converted)
T3 construct: purchased Euroscreen; host or cells: CHO-K1
T3 sequence (P28223 whole entry): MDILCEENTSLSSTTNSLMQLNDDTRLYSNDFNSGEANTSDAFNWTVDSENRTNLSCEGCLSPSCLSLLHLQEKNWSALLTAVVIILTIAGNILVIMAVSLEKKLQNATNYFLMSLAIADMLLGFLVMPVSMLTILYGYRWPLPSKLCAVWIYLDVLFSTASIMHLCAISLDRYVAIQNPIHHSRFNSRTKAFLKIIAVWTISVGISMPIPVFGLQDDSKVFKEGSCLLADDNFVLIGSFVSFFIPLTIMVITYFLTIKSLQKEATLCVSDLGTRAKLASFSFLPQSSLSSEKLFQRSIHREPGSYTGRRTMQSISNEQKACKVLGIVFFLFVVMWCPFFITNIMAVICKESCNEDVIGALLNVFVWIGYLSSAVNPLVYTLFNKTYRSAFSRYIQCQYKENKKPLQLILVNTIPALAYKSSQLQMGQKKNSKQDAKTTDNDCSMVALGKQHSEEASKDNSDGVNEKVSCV
Method: as §1
Membrane preparations from CHO-K1 cells expressing the cloned human 5-HT2A receptor were obtained (Euroscreen). The membranes were thawed rapidly and diluted in assay buffer containing Tris-HCl (50 mM, pH 7.7). The membranes were resuspended by homogenisation, prior to adding 15 μg of membranes to assay wells containing [3H]ketanserin (1 nM), assay buffer (50 mM Tris at pH 7.4) containing pargyline (10 μM), and test compounds (1×10^−10 to 1×10^−4M). Non specific binding was determined in the presence of 100 μM mianserin. After 15 minutes incubation at 37° C., the assay mixture was filtered through a combination of GF-C and GF-B filters, pre-soaked in 0.05% Brij, using a Brandel cell harvester, and were washed three times using ice cold Tris-HCl buffer (50 mM). Radioactivity retained on the filters was determined by liquid scintillation counting. For each test compound, the concentration that inhibited binding of [^3H]ketanserin by 50% was determined using curve fitting software (Prism). Kd values (concentration of ketanserin required to occupy 50% of the receptor binding sites at equilibrium) determined from saturation binding studies were then used to calculate inhibition dissociation constants (Ki) using the following equation: […]

Row | Ki [1] | Ki [2] | Ki [3] | Structure (SMILES)
1 | < 100 nM | > 1000 nM | > 1000 nM | Cc1cc(Nc2ccc(I)c(Cl)c2)nc(N)n1 [Compound 2Y, N-(3-chloro-4-iodo-phenyl)-6-methyl-pyrimidine-2,4-diamine hydrochloride]
2 | < 1000 nM | > 100 nM | > 1000 nM | Cc1cc(Nc2cc(Br)ccc2O)nc(N)n1 [Compound 2O, 2-(2-amino-6-methyl-pyrimidin-4-ylamino)-4-bromo-phenol hydrochloride]
3 | < 100 nM | > 1000 nM | > 10000 nM | Cc1cc(Nc2ccc3c(c2)CCC3)nc(N)n1 [Compound 2J, N^4-indan-5-yl-6-methyl-pyrimidine-2,4-diamine hydrochloride]
4 | < 1000 nM | > 1000 nM | > 1000 nM | Cn1nc(Nc2ccc(-c3ccccc3)cc2)nc1N [Compound 411A, N^3-biphenyl-4-yl-1-methyl-1H-[1,2,4]triazole-3,5-diamine trifluoroacetic acid]
5 | < 10 nM | > 100 nM | > 1000 nM | Cc1cc(Nc2ccc(-c3ccccc3)cc2)nc(N)n1 [Compound 11A, N^4-biphenyl-4-yl-6-methyl-pyrimidine-2,4-diamine trifluoroacetic acid]
6 | < 1000 nM | > 1000 nM | > 1000 nM | Cc1cc(Nc2cccc(O)c2)nc(N)n1 [Compound 2Q, 3-(2-amino-6-methyl-pyrimidin-4-ylamino)-phenol hydrochloride]
7 | < 100 nM | > 100 nM | > 316 nM | Nc1nc(-c2cccc3c(Br)cccc23)c[nH]1 [Compound 104H, 4-(5-Bromo-naphthalen-1-yl)-1H-imidazol-2-ylamine]
8 | < 1000 nM | > 1000 nM | > 1000 nM | Cc1cc(Nc2cccc(-c3cccnc3)c2)nc(N)n1 [Compound 10D, 6-methyl-N^4-(3-pyridin-3-yl-phenyl)-pyrimidine-2,4-diamine bis trifluoroacetic acid]
9 | < 1000 nM | > 1000 nM | > 1000 nM | Cc1cc(Nc2ccc3ncsc3c2)nc(N)n1 [Compound 2AB, N^4-benzothiazol-6-yl-6-methyl-pyrimidine-2,4-diamine hydrochloride]
10 | < 1000 nM | > 1000 nM | > 1000 nM | CC(=O)Nc1ccc(Nc2cc(C)nc(N)n2)cc1 [Compound 2V, N-[4-(2-amino-6-methyl-pyrimidin-4-ylamino)-phenyl]-acetamide hydrochloride]
11 | < 100 nM | – | – | Cc1cc(Nc2ccc(C)c(I)c2)nc(N)n1 [Compound 2AK, N^4-(3-iodo-4-methyl-phenyl)-6-methyl-pyrimidine-2,4-diamine trifluoroacetic acid]
12 | < 1000 nM | – | – | Cc1cccc(-c2cccc(-c3nc(N)oc3C)c2)c1 [Compound 218B, 5-Methyl-4-(3′-methyl-biphenyl-3-yl)-oxazol-2-ylamine, trifluoroacetic acid]
13 | < 100 nM | – | – | Cc1cc(Nc2cccc(-c3cccc(O)c3)c2)nc(N)n1 [Compound 10G, 3′-(2-amino-6-methyl-pyrimidin-4-ylamino)-biphenyl-3-ol trifluoroacetic acid]

The remaining lines, values behind:

Row | Structure (SMILES) | Ki [1] | Ki [2] | Ki [3]
14 | CC(=O)Nc1nc(-c2cccc3ccccc23)c(C)[nH]1 [Compound 103I, N-(5-Methyl-4-naphthalen-1-yl-1H-imidazol-2-yl)-acetamide] | < 100 nM | > 1000 nM | > 1000 nM
15 | CC(=O)Nc1nc(-c2cccc(-c3ccccc3)c2)c[nH]1 [Compound 107, N-(4-biphenyl-3-yl-1H-imidazol-2-yl)-acetamide] | < 1000 nM | – | –
16 | CC(=O)Nc1ncc(-c2sc3ccccc3c2C)[nH]1 [Compound 103O, N-[4-(3-Methyl-benzo[b]thiophen-2-yl)-1H-imidazol-2-yl]-acetamide] | < 1000 nM | > 10000 nM | > 10000 nM
17 | CC(C)c1[nH]c(N)nc1-c1cccc2ccccc12 [Compound 104K, 5-Isopropyl-4-naphthalen-1-yl-1H-imidazol-2-ylamine] | < 100 nM | > 316 nM | > 100 nM
18 | COc1ccc(-c2c[nH]c(NC(C)=O)n2)c2ccccc12 [Compound 103B, N-[4-(4-Methoxy-naphthalen-1-yl)-1H-imidazol-2-yl]-acetamide] | < 1000 nM | > 10000 nM | > 10000 nM
19 | CC(=O)Nc1nc(-c2c(O)ccc3ccccc23)c[nH]1 [Compound 103Q, N-[4-(2-hydroxy-naphthalen-1-yl)-1H-imidazol-2-yl]-acetamide] | < 1000 nM | > 1000 nM | > 3160 nM
20 | CC(=O)Nc1nc(-c2cccc3ccc(Br)cc23)c[nH]1 [Compound 103G, N-[4-(7-Bromo-naphthalen-1-yl)-1H-imidazol-2-yl]-acetamide] | < 100 nM | > 1000 nM | > 1000 nM
21 | Cc1c(-c2cnc(N)[nH]2)sc2ccccc12 [Compound 104O, 4-(3-Methyl-benzo[b]thiophen-2-yl)-1H-imidazol-2-ylamine] | < 316 nM | > 316 nM | > 10000 nM
22 | CC(=O)Nc1nc(-c2cccc3ccccc23)c[nH]1 [Compound 103N, N-(4-Naphthalen-1-yl-1H-imidazol-2-yl)-acetamide] | < 1000 nM | > 10000 nM | > 10000 nM
23 | CC(C)c1cccc(-c2cccc(-c3cnc(N)o3)c2)c1 [Compound 209M, 5-(3′-Isopropyl-biphenyl-3-yl)-oxazol-2-ylamine, trifluoroacetic acid] | < 1000 nM | – | –
24 | Nc1ncc(-c2cccc(-c3ccccc3)c2)o1 [Compound 209A, 5-Biphenyl-3-yl-oxazol-2-ylamine] | < 316 nM | > 10000 nM | > 10000 nM
